# Columns and labels:
# Rattus norvegicus [1] = details: short-term, duration: 28 days, oral, gavage, Crl:CD(SD)
# Rattus norvegicus [2] = system: Rattus norvegicus
# Rattus norvegicus [3] = details: oral
# [4] = F, Kidney: Kidney, Right, Pelvis, Dilation + Liver: Liver Weight, Relative + Liver: Liver, Large
# [5] = F, Whole Body: Clinical Observations
# [6] = M, Liver: Hepatocellular Hypertrophy + Liver: Liver Weight, Relative + Liver: Liver, Large
# [7] = short-term, duration: 4 weeks, oral, gavage, F, Sprague-Dawley
# [8] = short-term, duration: 4 weeks, oral, gavage, M, Sprague-Dawley
# [9] = short-term, duration: 28 days, gavage, M, Sprague-Dawley, Clinical Observation: Locomotor activity decrease, Staining around nose and mouth Salivation + Functional Observational Battery: Motor …
# [10] = chronic, duration: 92 days, gavage, M/F, Fischer 344, Histopathology: Liver-Proliferation of smooth endoplasmic reticulum, parenchymal cell (Electron-microscopic examination) Liver-Decrease in …
# [11] = short-term, duration: 28 days, gavage, F, Sprague-Dawley, Clinical Observation: Soft stool + Body Weight Changes: decrease, Gain decrease + Urinalysis: Protein increasep H decrease + Blood Chemistry…
# [12] = short-term, duration: 28 days, gavage, M, Sprague-Dawley, Clinical Observation: Soft stool + Body Weight Changes: decrease, Gain decrease + Urinalysis: Protein increasep H decrease + Blood Chemistry…
# [13] = subchronic, gavage, Sprague-Dawley
# [14] = short-term, duration: 28 days, gavage, M, Sprague-Dawley, Clinical Observation: Salivation Spontaneous locomotion decrease, Respiratory rate decrease
smiles,measurement,setting,value
CCC(F)(F)C(F)(F)C(F)(F)C(F)(F)C(F)(F)C(F)(F)F [1-(Perfluorohexyl)ethane],NOAEL,"Rattus norvegicus [1]; F, Adrenal: Adrenal Gland Histopathology + Adrenal: Adrenal Gland Weight, Absolute + Adrenal: Adrenal Gland Weight, Relative + Bladder: Urinary…",200 mg/kg-day
same,LOAEL,Rattus norvegicus [1]; [4],200 mg/kg-day
same,NOAEL,Rattus norvegicus [1]; [4],40 mg/kg-day
same,LOAEL,Rattus norvegicus [1]; [5],40 mg/kg-day
same,NOAEL,Rattus norvegicus [1]; [5],8 mg/kg-day
same,NOAEL,"Rattus norvegicus [1]; M, Adrenal: Adrenal Gland Histopathology + Adrenal: Adrenal Gland Weight, Absolute + Adrenal: Adrenal Gland Weight, Relative + Blood: Activated…",200 mg/kg-day
same,LOAEL,Rattus norvegicus [1]; [6],200 mg/kg-day
same,NOAEL,Rattus norvegicus [1]; [6],40 mg/kg-day
CCCCCCCCCCCCCCCCCC(=O)[O-].CCCCCCCCCCCCCCCCCC(=O)[O-].[Ca+2] [Calcium stearate],NOAEL,"Rattus norvegicus [2]; subchronic, duration: 13 weeks, dermal, non-occlusive, F, Sprague-Dawley",2000 mg/kg-day
same,NOAEL,"Rattus norvegicus [2]; subchronic, duration: 13 weeks, dermal, non-occlusive, M, Sprague-Dawley",2000 mg/kg-day
same,NOAEL,"Rattus norvegicus [3]; short-term, duration: 28 days, gavage, M, Sprague-Dawley, Urinalysis: Bilirubin increase + Absolute Organ Weight: Spleen increase",2000 mg/kg-day
C=C(C)C [Isobutene],NOAEL,"Rattus norvegicus [2]; reproduction developmental, duration: 17 days, inhalation, F, Wistar",18400 mg/m3
same,LOAEL,Rattus norvegicus [2]; [7],149 mg/kg-day
same,NOAEL,Rattus norvegicus [2]; [7],14.9 mg/kg-day
same,LOAEL,Rattus norvegicus [2]; [8],149 mg/kg-day
same,NOAEL,Rattus norvegicus [2]; [8],14.9 mg/kg-day
same,NOAEL,"Rattus norvegicus [2]; subchronic, duration: 13 weeks, inhalation, F, Sprague-Dawley",18400 mg/m3
same,NOAEL,"Rattus norvegicus [2]; subchronic, duration: 13 weeks, inhalation, M, Sprague-Dawley",18400 mg/m3
same,NOAEL,"Rattus norvegicus [3]; short-term, duration: 28 days, gavage, Sprague-Dawley",149 mg/kg-day
"O=NN1CN2CN(C1)CN(N=O)C2 [N,N-Dinitrosopentamethylenetetramine]",NOAEL,Rattus norvegicus [3]; [9],< 40 mg/kg-day
same,NOEL,Rattus norvegicus [3]; [9],< 40 mg/kg-day
CC(=O)Nc1ccccc1 [N-Acetylaminobenzene],NOAEL,"Rattus norvegicus [3]; subchronic, duration: 30 days, gavage, M, Sprague-Dawley, Clinical Observation: Decreased locomotor activity Reddish Tear SalivationCyanosis + Hematology: HGB decrease, HCT decrease, MCHC decrease…",< 22 mg/kg-day
CC1OC(C)OC(C)O1 (configuration not stated) [Paraldehyde],NOEL,"Rattus norvegicus [3]; short-term, duration: 28 days, gavage, M/F, Sprague-Dawley, Clinical Observation: Locomotor activity decrease + Functional Observational Battery: Width of straddle increase + Relative Organ Weight: …",100 mg/kg-day
CC1(C)S[C@@H]2[C@H](NC(=O)COc3ccccc3)C(=O)N2[C@H]1C(=O)[O-].[K+] [Penicillin VK],NOEL,"Rattus norvegicus [3]; subchronic, duration: 13 weeks, gavage, M/F, Fischer 344, Clinical Observation: Diarrhea + Body Weight Changes: decrease + Histopathology: Stomach/glandular-Mucous cell metaplasia",370 mg/kg-day
"Oc1cccc(Br)c1 [Phenol, 3-bromo-]",NOEL,"Rattus norvegicus [3]; short-term, duration: 28 days, gavage, M/F, Sprague-Dawley, Clinical Observation: Salivation + Body Weight Changes: Weight gain decrease + Water Consumption: increase + Urinalysis: Volume increase + …",300 mg/kg-day
CCC1(c2ccccc2)C(=O)NCNC1=O [Primidone],NOEL,"Rattus norvegicus [3]; chronic, duration: 14 weeks, diet, M/F, Fischer 344, Body Weight Changes: decrease + Hematology: Plt increase, Hgb decrease, WBC increase, Lympho increase + Blood Chemistry: Blood cemistry', '…",< 23.4 mg/kg-day
Oc1cccc(O)c1 [Resorcinol],NOEL,"Rattus norvegicus [3]; subchronic, duration: 13 weeks, gavage, M/F, Fischer 344, Deaths + Clinical Observation: Tremor + Blood Chemistry: Ch E decrease + Absolute Organ Weight: Adrenal increase + Relative Organ Weight: …",< 32 mg/kg-day
C=C1C/C(=C/C)C(=O)O[C@@H]2CCN3CC=C(COC(=O)[C@@]1(O)CO)[C@H]23 [Riddelliine],NOEL,"Rattus norvegicus [3]; subchronic, gavage, M/F, Fischer 344, Deaths + Body Weight Changes: decrease + Hematology: Ret increase Hct increase Hgb increase RBC increase Plt decrease, WBC increase Lymph …",< 0.1 mg/kg-day
CN(C)C(=O)c1nc(CNC(=O)CN)n(-c2ccc(Cl)cc2C(=O)c2ccccc2Cl)n1.Cl [Rilmazafone hydrochloride],NOAEL,Rattus norvegicus [3]; [10],25 mg/kg-day
same,NOEL,Rattus norvegicus [3]; [10],1 mg/kg-day
C=Cc1ccc(S(=O)(=O)[O-])cc1.[Na+] [Sodium 4-vinylbenzenesulfonate],LOEL,Rattus norvegicus [3]; [11],1000 mg/kg-day
same,NOEL,Rattus norvegicus [3]; [11],300 mg/kg-day
same,LOEL,Rattus norvegicus [3]; [12],300 mg/kg-day
same,NOEL,Rattus norvegicus [3]; [12],100 mg/kg-day
O=C([O-])[C@H](O)[C@@H](O)[C@H](O)[C@H](O)CO.[Na+] [Sodium D-gluconate],NOAEL,"Rattus norvegicus [3]; short-term, duration: 28 days, diet, CD(SD)",4100 mg/kg-day
same,NOAEL,"Rattus norvegicus [3]; short-term, duration: 28 days, diet, Sprague-Dawley",5%
same,NOAEL,"Rattus norvegicus [3]; short-term, duration: 28 days, gavage, M, CD(SD), Histopathology: Stomach: Thickening of the limiting ridge",1000 mg/kg-day
same,NOAEL,"Rattus norvegicus [3]; short-term, duration: 28 days, gavage, M, CD(SD), Histopathology: Stomach: Thickening, limiting ridge",1000 mg/kg-day
CC(C)(C)C(O)(CCc1ccc(Cl)cc1)Cn1cncn1 (configuration not stated) [Tebuconazole],NOEL,"Rattus norvegicus [3]; short-term, duration: 28 days, gavage, M/F, Clinical Observation: Coma Polyuria + Body Weight Changes: Body weight gain decrease + Hematology: WBC increase, Seg% increase + Blood …",30 mg/kg-day
CC(=O)CC/C=C(\C)CC/C=C(\C)CC/C=C(\C)CCC=C(C)C [Teprenone],NOEL,"Rattus norvegicus [3]; subchronic, gavage, M/F, Sprague-Dawley, Clinical Observation: Oily fur Unkempt fur Loss of fur Diarrhea + Body Weight Changes: decrease + Urinalysis: Cl increase, Ketone + …",62.5 mg/kg-day
"CC(C)(c1cc(Br)c(OCC(Br)CBr)c(Br)c1)c1cc(Br)c(OCC(Br)CBr)c(Br)c1 (configuration not stated) [Tetrabromobisphenol A-bis(2,3-dibromopropyl ether)]",NOEL,Rattus norvegicus [3]; [13],1000 mg/kg-day
OCC1CCCO1 (configuration not stated) [Tetrahydrofurfuryl alcohol],NOEL,"Rattus norvegicus [3]; short-term, duration: 28 days, gavage, M/F, Sprague-Dawley, Clinical Observation: Locomotor activity increase, Locomotor activity decrease, Prone position + Functional Observational Battery: Grip …",40 mg/kg-day
Nc1nn[nH]n1 [Tetrazol-5-ylamine],NOEL,"Rattus norvegicus [3]; subchronic, gavage, M, Sprague-Dawley, Blood Chemistry: BUN increase",200 mg/kg-day
[Cl-].[Cl-].[Ti+4].c1cc[cH-]c1.c1cc[cH-]c1 [Titanocene dichloride],NOEL,"Rattus norvegicus [3]; subchronic, duration: 13 weeks, gavage, M/F, Fischer 344, Deaths + Body Weight Changes: decrease + Absolute Organ Weight: Liver increase, Thymus decrease + Relative Organ Weight: kidney increase, …",< 8 mg/kg-day
[CH3][Sn]([Cl])([Cl])[Cl] [Trichloromethylstannane],NOAEL,"Rattus norvegicus [3]; subchronic, duration: 90 days, diet, M/F, Wistar, Food Consumption: increase + Urinalysis: Volume increase, Specific gravity decrease, pH increase, Crystals increase + Hematology: RBC …",14.4 mg/kg-day
CCCCCCCC[Si](OCC)(OCC)OCC [Triethoxyoctylsilane],NOAEL,"Rattus norvegicus [3]; short-term, duration: 28 days, diet, Fischer 344",10000 ppm
same,NOAEL,"Rattus norvegicus [3]; short-term, duration: 29 days, gavage, M/F, Sprague-Dawley, Clinical Observation: Soiling of the head (nose, chin, muzzle) + Body Weight Changes: Mean body weight decrease, Weight gain decrease + Food…",300 mg/kg-day
CO[Si](CCCOCC1CO1)(OC)OC (configuration not stated) [Trimethoxy[3-(oxiran-2-ylmethoxy)propyl]silane],NOAEL,"Rattus norvegicus [3]; short-term, duration: 28 days, gavage, Sprague-Dawley, Deaths: None (there were dead animals due to intubation error)",> 1000 mg/kg-day
O=P(OCCCl)(OCCCl)OCCCl [Tris(2-chloroethyl) phosphate],NOAEL,Rattus norvegicus [3]; [14],400 mg/kg-day
same,NOEL,Rattus norvegicus [3]; [14],80 mg/kg-day
S=c1[nH]c(=S)[nH]c(=S)[nH]1 [Trithiocyanuric acid],NOEL,"Rattus norvegicus [3]; subchronic, gavage, M, Sprague-Dawley, Deaths + Clinical Observation: Black area of the pinna Nodule of the tail Dark purple distally of the tail Reddish urine + Body Weight …",< 62.5 mg/kg-day
C=CN1CCCC1=O [Vinylpyrrolidone],NOAEL,"Rattus norvegicus [3]; subchronic, duration: 90 days, drinking water, M/F, Wistar, Water Consumption: decrease + Blood Chemistry: TP decrease, Glob decrease, Alb decrease + Absolute Organ Weight: Kidney increase",4.56 mg/kg-day
same,NOAEL,"Rattus norvegicus [3]; subchronic, duration: 90 days, gavage, M/F, Wistar, Food Consumption: decrease + Water Consumption: increase + Hematology: PLT increase + Absolute Organ Weight: Liver increase + Histopathology…",60 mg/kg-day
[O-][n+]1ccccc1[S-].[O-][n+]1ccccc1[S-].[Zn+2] [Zinc pyrithione],NOEL,Rattus norvegicus [3]; [13],1 mg/kg-day
CC1CC(C)(C)CC(c2ccc(O)cc2)(c2ccc(O)cc2)C1 (configuration not stated) [bisphenol TMC],NOEL,"Rattus norvegicus [3]; short-term, duration: 28 days, gavage, M/F, Body Weight Changes: Weight gain decrease + Food Consumption: decrease + Water Consumption: increase + Urinalysis: Protein increase + …",< 100 mg/kg-day
O=C1CCCO1 [gamma-Butyrolactone],NOEL,"Rattus norvegicus [3]; subchronic, duration: 13 weeks, gavage, M/F, Fischer 344, Clinical Observation: Slight inactivity Recumbent + Body Weight Changes: decrease + Absolute Organ Weight: Thymus decrease + Relative Organ …",112 mg/kg-day
Cc1ccc(S(=O)(=O)Cl)cc1 [p-Toluenesulfonyl chloride],NOAEL,"Rattus norvegicus [3]; subchronic, duration: 51 days, gavage, M, Sprague-Dawley, Clinical Observation: Soft stool Staining around anorectal region Staining around mouth Staining around nose(blood like) Loss of hair around…",< 150 mg/kg-day
